Test system: bacteria in clinical bovine mastitis milk samples
Experiment: Combined bacteria identification and antimicrobial susceptibility test (colour of wells, MIC) on clinical bovine mastitis milk samples
Type: cell-based
Method: Clinical bovine mastitis milk samples were collected by a vet clinic in South Island, New Zealand. Samples were stored in the freezer for several months and shipped frozen to the testing facility. In this Example, the term “clinical” means that dairy cows had clinical symptoms of an udder infection e.g. cow behaved unusual, milk clots, swollen udder among other typical symptoms. Testing was executed in microwell plate comprising of 24 wells (3×8 wells).
In addition, 20 ul of clinical mastitis sample was added to each well with a laboratory pipette.
(§1) Abbreviations • 1. 80 ul GC+10 ul Tell: 80 ul Giolitti Cantoni base broth+10 ul Tellurite solution (1%); • 2. 80 ul TSB/Esc/Fer Cit: 80 ul Tryptic soy broth containing 0.25% Esculin and 0.125% Ammonium Ferric Citrate; • 3. 80 ul TSB/Esc/Fer Cit+10 ul Genta: 80 ul Tryptic soy broth containing 0.25% Esculin and 0.125% Ammonium Ferric Citrate+10 ul of Gentamycin solution 10 mg/ml; • 4. 80 ul McC/PR25: 80 ul MacConkey broth (single strength) containing 0.0125% phenol red; and • 5. 80 ul TSB/PR25: 80 ul Tryptic soy broth containing 0.0125% phenol red. Bacteria Identification
Columns A to C and rows 1 and 2 were used for bacteria identification. A1: coagulase positive Staph; A2: Staphylococci; B1: Strep group D; B2: Strep group D; C1: general enrichment media (gram+ and gram-bacteria); C2: coliform bacteria.
Column A3 to A8: serial dilution of benzyl penicillin as potassium. Column B3 to B8: serial dilution of ceftiofur as hydrochloride. Column C3 to C8: serial dilution of cloxacillin as sodium. Antibiotic concentrations are listed as free form ranging between 4 ug/ml to 0.05 ug/ml.
Minimum inhibitory substance concentration (MIC) is here defined as the concentration if a colour change occurs between two wells (one well remains red with drug concentration 1, the other one yellow with drug concentration 2, whereas drug concentration 1 is larger than drug concentration 2) then the MIC is the value of drug concentration 1.
Table 21 indicates the microwell plate configuration #1; Drugs: Benzylpenicillin as potassium; Cloxacillin as sodium; Ceftiofur as hydrochloride; Drug concentration in each well (A3 to C8) is based on 80 μl composition+10 μl drug solution+20 μl clinical mastitis milk sample and equivalent to listed drug concentration in μg/ml; 20 ul of clinical bovine mastitis milk sample was added to each well (A1 to C8).
In addition, each well received one drop of clinical sample from a transfer pipette which was on average about 35 mg. This was determined through weighing the well plate prior and after the addition of clinical mastitis samples. This weight was then divided by 24.
as §1, with “•” for “Abbreviations •”, “red.” for “red. Bacteria Identification”
Columns A to C and rows 1 and 2 were used for bacteria identification. A1: coagulase positive Staph; A2: Staphylococci; B1: Strep Group D; B2: -; C1: general enrichment media (gram+ and gram-); C2: coliform bacteria.
Column A3 to A8: serial dilution of benzyl penicillin as potassium. Drug concentrations given as free form ranging between 4 ug/ml to 0.05 ug/ml. Column B3 to B8: serial dilution of ceftiofur as hydrochloride. Drug concentrations given as free form ranging between 4 ug/ml to 0.05 ug/ml. Column C3 to C8: serial dilution of cloxacillin as sodium. Drug concentrations given as free form ranging between 4 ug/ml to 0.05 ug/ml.

Compound: Cc1onc(-c2ccccc2Cl)c1C(=O)N[C@@H]1C(=O)N2[C@@H]1SC(C)(C)[C@@H]2C(=O)O [cloxacillin]
- Colour of media in each well (ID 5 to 8, T = 0 h (prior incubation, reference), plate configuration #2, drug 1 μg/ml): red
- Colour of media in each well (ID 5 to 8, T = 0 h (prior incubation, reference), plate configuration #2, drug 2 μg/ml): red
- Colour of media in each well (ID 5 to 8, T = 0 h (prior incubation, reference), plate configuration #2, drug 4 μg/ml): red
- Colour of media in each well (ID 6, T = 23h, 37° C., plate configuration #2, drug 0.05 μg/ml (Table 31)): yellow
- Colour of media in each well (ID 6, T = 23h, 37° C., plate configuration #2, drug 0.1 μg/ml (Table 31)): yellow
- Colour of media in each well (ID 6, T = 23h, 37° C., plate configuration #2, drug 0.5 μg/ml (Table 31)): yellow
- Colour of media in each well (ID 6, T = 23h, 37° C., plate configuration #2, drug 1 μg/ml (Table 31)): yellow
- Colour of media in each well (ID 6, T = 23h, 37° C., plate configuration #2, drug 2 μg/ml (Table 31)): yellow
- Colour of media in each well (ID 6, T = 23h, 37° C., plate configuration #2, drug 4 μg/ml (Table 31)): yellow
- Colour of media in each well (ID 6, T~7 h, 37° C., plate configuration #2, Table 35, drug 0.05 μg/ml): yellow
- Colour of media in each well (ID 6, T~7 h, 37° C., plate configuration #2, Table 35, drug 0.1 μg/ml): yellow
- Colour of media in each well (ID 6, T~7 h, 37° C., plate configuration #2, Table 35, drug 0.5 μg/ml): yellow
- Colour of media in each well (ID 6, T~7 h, 37° C., plate configuration #2, Table 35, drug 1 μg/ml): yellow
- Colour of media in each well (ID 6, T~7 h, 37° C., plate configuration #2, Table 35, drug 2 μg/ml): yellow
- Colour of media in each well (ID 6, T~7 h, 37° C., plate configuration #2, Table 35, drug 4 μg/ml): yellow
- Colour of media in each well (ID 6, T~11 h, 37° C., plate configuration #2, Table 35, drug 0.05 μg/ml): yellow
- Colour of media in each well (ID 6, T~11 h, 37° C., plate configuration #2, Table 35, drug 0.1 μg/ml): yellow
- Colour of media in each well (ID 6, T~11 h, 37° C., plate configuration #2, Table 35, drug 0.5 μg/ml): yellow
- Colour of media in each well (ID 6, T~11 h, 37° C., plate configuration #2, Table 35, drug 1 μg/ml): yellow
- Colour of media in each well (ID 6, T~11 h, 37° C., plate configuration #2, Table 35, drug 2 μg/ml): yellow
- Colour of media in each well (ID 6, T~11 h, 37° C., plate configuration #2, Table 35, drug 4 μg/ml): yellow
- Colour of media in each well (ID 6, T~23 h, 37° C., plate configuration #2, Table 35, drug 0.05 μg/ml): yellow
- Colour of media in each well (ID 6, T~23 h, 37° C., plate configuration #2, Table 35, drug 0.1 μg/ml): yellow
- Colour of media in each well (ID 6, T~23 h, 37° C., plate configuration #2, Table 35, drug 0.5 μg/ml): yellow
- Colour of media in each well (ID 6, T~23 h, 37° C., plate configuration #2, Table 35, drug 1 μg/ml): yellow
- Colour of media in each well (ID 6, T~23 h, 37° C., plate configuration #2, Table 35, drug 2 μg/ml): yellow
- Colour of media in each well (ID 6, T~23 h, 37° C., plate configuration #2, Table 35, drug 4 μg/ml): yellow
- Colour of media in each well (ID 7, T = 23h, 37° C., plate configuration #2, drug 0.05 μg/ml): yellow
- Colour of media in each well (ID 7, T = 23h, 37° C., plate configuration #2, drug 0.1 μg/ml): yellow
- Colour of media in each well (ID 7, T = 23h, 37° C., plate configuration #2, drug 0.5 μg/ml): red
- Colour of media in each well (ID 7, T = 23h, 37° C., plate configuration #2, drug 1 μg/ml): red
- Colour of media in each well (ID 7, T = 23h, 37° C., plate configuration #2, drug 2 μg/ml): red
- Colour of media in each well (ID 7, T = 23h, 37° C., plate configuration #2, drug 4 μg/ml): red
- Colour of media in each well (ID 8, T = 23 h, 37° C., plate configuration #2, drug 0.05 μg/ml): yellow
- Colour of media in each well (ID 8, T = 23 h, 37° C., plate configuration #2, drug 0.1 μg/ml): yellow
- Colour of media in each well (ID 8, T = 23 h, 37° C., plate configuration #2, drug 0.5 μg/ml): red
- Colour of media in each well (ID 8, T = 23 h, 37° C., plate configuration #2, drug 1 μg/ml): red
- Colour of media in each well (ID 8, T = 23 h, 37° C., plate configuration #2, drug 2 μg/ml): red
- Colour of media in each well (ID 8, T = 23 h, 37° C., plate configuration #2, drug 4 μg/ml): red
- Colour of media in each well (Table 24, sample ID 2, 22 hours at 37° C., plate configuration #1, row 3 of serial dilution 4 ug/ml to 0.05 ug/ml): red
- Colour of media in each well (Table 24, sample ID 2, 22 hours at 37° C., plate configuration #1, row 4 of serial dilution 4 ug/ml to 0.05 ug/ml): red
- Colour of media in each well (Table 24, sample ID 2, 22 hours at 37° C., plate configuration #1, row 5 of serial dilution 4 ug/ml to 0.05 ug/ml): red
- Colour of media in each well (Table 24, sample ID 2, 22 hours at 37° C., plate configuration #1, row 6 of serial dilution 4 ug/ml to 0.05 ug/ml): red
- Colour of media in each well (Table 24, sample ID 2, 22 hours at 37° C., plate configuration #1, row 7 of serial dilution 4 ug/ml to 0.05 ug/ml): yellow
- Colour of media in each well (Table 24, sample ID 2, 22 hours at 37° C., plate configuration #1, row 8 of serial dilution 4 ug/ml to 0.05 ug/ml): yellow
- MIC (clinical sample ID 1 (streptococci group D), 37° C. for 22 hours, plate configuration #1): 0.5 µg/mL
- MIC (clinical sample ID 2 (streptococci group D, also coagulase positive Staph), 37° C. for 22 hours, plate configuration #1): 0.5 µg/mL
- MIC (clinical sample ID 4 (coagulase positive Staph), 37° C. for 22 hours, plate configuration #1): 0.5 µg/mL
- MIC (clinical sample ID 5 (streptococci group D), 37° C. for 23 hours, plate configuration #2): 0.5 µg/mL
- MIC (clinical sample ID 7 (coagulase positive Staph), 37° C. for 23 hours, plate configuration #2): 0.5 µg/mL
- MIC (clinical sample ID 8 (coagulase negative Staph and Streptococci group D), 37° C. for 23 hours, plate configuration #2): 0.5 µg/mL

Source: US10829796B2, “Bacteria identification and antimicrobial susceptibility test” (priority 2015, dated 2020)
